Series [1] relates to rhythmic bladder contractions induced by substance P. The series is described as follows: Inhibitory effect on the rhythmic bladder contractions induced by substance P in anesthetized rats. Type of series: in vivo, rat. The following applies: time during which frequency of rhythmic contraction was completely inhibited, 0.25 mg/kg of the compound, substance P infusion. The procedure, abridged:
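Urethane-anesthetized female Sprague-Dawley rats with rhythmic bladder contractions driven by i.v. substance P (0.33 μg/kg/min). Compound given i.v. in saline/0.5% Tween 80 once contractions stable 15 min; intravesical pressure monitored, duration of 100% inhibition ranked A ≥20, B ≥10, C <10 min.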

Series [2] has as its system isolated rabbit urinary bladder. The series is described as follows: Relaxation effect on potassium-induced contraction of isolated rabbit urinary bladder. The conditions noted are these: Oryctolagus cuniculus; 50% relaxation concentration; high-K+ (30 mM) pre-contracted rabbit bladder strips; relaxation as percentage of the maximum produced by 0.1 mM papaverine; read-out: EC50 value range. Type of series: cell-based. The procedure, abridged:
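Mucosa-free longitudinal bladder strips from male NZW rabbits, held at 37 °C in Krebs solution gassed with 95% O2/5% CO2, were precontracted with 30 mM K+. Compounds were added cumulatively (10^−8–10^−4 M), with isometric relaxation expressed relative to 0.1 mM papaverine maximum. EC50 was derived and reported as rank ranges.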

Structures are written as SMILES. Where a name gives a salt, the structure may show the parent alone.

By melting point is commonly meant the temperature, or range, at which the solid turns liquid. Compound `N#CCCc1nc(-c2ccc(F)cc2)[nH]c1-c1ccccc1` [Preparation example 62] registered a melting point of 176 to 178 °C. Also, in series [1], the “100% inhibition time range” value was “C (A≧20>B≧10>C (minute))”.

The EC50 is the concentration needed to bring the measured effect to its halfway point. Compound `CCONC(=O)Cc1nc(-c2ccc(F)cc2)oc1-c1ccsc1` [Preparation Example 377] had a melting point of 183 to 184 °C. The EC50 in series [2] lay in the range of 1000 to 3000 nM. Further, the “100% inhibition time range” value in series [1] was “C (A≧20>B≧10>C (minute))”.

On to `COCc1[nH]c(-c2ccc(Cl)s2)nc1-c1cccnc1.Cl.Cl` [Preparation example 120, 2-(5-chlorothiophen-2-yl)-5-methoxymethyl-4-(3-pyridyl) imidazole dihydrochloride], for which the melting point is 245 to 248 °C (dec.). In addition, the 50% effective concentration (EC50) in series [2] is at most 500 nM. Further, the “100% inhibition time range” value in series [1] was “C (A≧20>B≧10>C (minute))”.

Consider `COC(=O)c1nc(-c2ccc(F)cc2)oc1-c1ccsc1` [Preparation Example 622], for which the melting point lay in the range of 213 to 214 °C. Further, the “100% inhibition time range” value in series [1] is given as “B (A≧20>B≧10>C (minute))”.

Compound `CCOC(=O)c1sccc1-c1nc(CC)c(-c2cccnc2)[nH]1` [Preparation example 10] registered a melting point of 127 to 129 °C. The EC50 in series [2] is 1000 to 3000 nM.

In turn, `CSCc1nc(-c2ccc(F)cc2)[nH]c1-c1cccnc1` [Preparation example 133] returned a melting point of 172 to 174 °C. Further, the “100% inhibition time range” value in series [1] is listed as “C (A≧20>B≧10>C (minute))”.

As to `CS(=O)(=O)Cc1nc(-c2ccc(F)cc2)oc1-c1ccsc1` [Preparation Example 623], the melting point was in the range of 208 to 210 °C. In addition, the EC50 in series [2] is 1000 to 3000 nM. In addition, the “100% inhibition time range” value in series [1] was “C (A≧20>B≧10>C (minute))”.

The compound `CCCc1nc(-c2ccc(F)cc2)[nH]c1-c1ccc(C#N)cc1` [Preparation example 95] yielded a melting point of 240 to 242 °C. In addition, in series [2], the 50% effective concentration (EC50) was 1000 to 3000 nM.

The compound `CCCc1nc(-c2ccc(Cl)cc2)[nH]c1-c1ccccc1` [Preparation example 60] had a melting point of 147 to 149 °C. The 50% effective concentration (EC50) in series [2] fell in the range of 1000 to 3000 nM.

As to `CCOC(=O)Cc1nc(-c2ccc(F)cc2)oc1I` [Preparation Example 295], the melting point lay in the range of 120 to 122 °C. Besides, the “100% inhibition time range” value in series [1] was “B (A≧20>B≧10>C (minute))”.

Compound `C[S+]([O-])Cc1nc(-c2ccc(F)cc2)oc1-c1ccsc1` (stereo not shown) [Preparation Example 624] returned a melting point of 173 to 174.5 °C. Also, the “100% inhibition time range” value in series [1] is listed as “C (A≧20>B≧10>C (minute))”.

For `CCc1nc(-c2ccc(Cl)s2)oc1-c1cccnc1.Cl` [Preparation example 63, 2-(5-chlorothiophen-2-yl)-4-ethyl-5-(3-pyridyl)oxazole hydrochloride], the melting point is 201 to 204 °C. Further, the “100% inhibition time range” value in series [1] is on record as “C (A≧20>B≧10>C (minute))”.

Regarding `CCc1nc(-c2ccc(Cl)cc2)[nH]c1-c1ccccc1` [Preparation example 59], the melting point lay within 174 to 176 °C. In addition, the EC50 in series [2] lay within 1000 to 3000 nM. In addition, the “100% inhibition time range” value in series [1] was “B (A≧20>B≧10>C (minute))”.

`CCc1nc(-c2ccc(F)cc2)[nH]c1-c1ccccc1` [Preparation example 61]: the melting point fell in the range of 169 to 170 °C. Moreover, the EC50 in series [2] is 1000 to 3000 nM. In addition, in series [1], the “100% inhibition time range” value is given as “A (A≧20>B≧10>C (minute))”.

Consider `Cc1nc(-c2csc(Cl)c2)[nH]c1-c1cccnc1` (as salt: HCl) [Preparation example 54], for which the melting point was in the range of 198 to 201 °C.

The values are drawn from patent publication US7759373B2, “Large conductance calcium-activated K channel opener” (Mitsubishi Tanabe Pharma Corporation, priority 2001, dated 2010).
